# pEC50, pIC50: −log10 of the molar value.
# Key:
# [1] = system: ConA-stimulated lymphocytes; experiment: IL-2 production from ConA-stimulated lymphocytes (ELISA); assay type: cell-based, mouse; conditions: without drug 3724.4
# Method: (§1) Mice were sacrificed by cervical dislocation, and spleens were collected under sterile conditions then teased through a nylon mesh. Erythrocytes were lysed. Cells were washed and resuspended at 5×10^6/ml in RPMI-1640 media with 10% FBS.
# (§2) 1 ml of spleen cells were treated with or without ConA (5 μg/ml) or Sac (1:10000) and in the presence or absence of drugs in a final volume of 2 ml.
# (§3) After 24 h culture at 37° C., 5% CO2 in a humidified incubator, cell-free supernatant was collected and frozen at −20° C. for ELISA.
# IL-2, IL-12p40, IL-10, and IFN-γ levels were determined by Enzyme Linked Immuno Sorbance Assay (ELISA). TMB was taken as the enzyme substrate. The absorbance was measured at 450/570 nm by BioRad microplate reader. The amount of cytokines in sample supernatants were calculated based on standard curve using standard murine cytokines (rIL-2, rIL-12, rIL-10, and rIFN-γ).
# [2] = system: mice; experiment: Acute toxicity (LD50) test in mice, oral; assay type: in vivo, mouse; conditions: single oral administration
# Method: Mice were single administered with LLDT-8 by oral, and observed for clinical signs of toxicity immediately and the following 14 days. Necropsy was performed on all animals that died and on all survivors at the end of the 2-week study. Death was seen from the next day after treatment and reached a peak at the 2-3 day. […] There was no gender difference in survival.
# [3] = system: P-388 (murine lymphoma cell); experiment: Tumor cell proliferation, P-388; assay type: cell-based; conditions: read-out: Inhibitory effect on tumor cell proliferation IC50
# [4] = system: HO-8910 (human ovary cancer cells); experiment: Tumor cell proliferation, HO-8910; assay type: cell-based; conditions: read-out: Inhibitory effect on tumor cell proliferation IC50
# [5] = system: T lymphocyte; experiment: ConA induced T-lymphocyte proliferation ([3H]thymidine); assay type: cell-based, mouse
# Method: (§4) Mice were sacrificed by cervical dislocation, and spleens were collected under sterile conditions then teased through a nylon mesh. Erythrocytes were lysed. Cells were washed and resuspended at 5×10^6/ml in RPMI-1640 media containing 10% FBS. For one 96 well plate assay, 100 pt of cells, 50 μl of sample and 50 μl of ConA/LPS were added into each well with the final volume 200 μl. The control wells were set up with 50 μl of RPMI-1640 media instead of ConA/LPS.
# (§5) Plates were incubated for 48 h (ConA) or 60 h (LPS), respectively, at 37° C., 5% CO2 in a humidified incubator. In the last 8 h of incubation, 25 μl (1.9×10^10 Bq) of [^3H]thymidine was added. After plates were incubated for 48 h, the plates (ConA) were stored at −20° C., then after another 12 h, the plates (LPS) were stored at −20° C.
# (§6) At the end of incubation, pulsed cells were harvested on a glass filter using a cell harvester ([…]96®, TOMTEC) and allowed to dry. Incorporation of radioactive thymidine was determined by using liquid Scintillation and Luminescence Counters (MicroBeta Trilux®, PerkinElmer).
# [6] = system: SGC-7901 (human gastric adenocarcinoma cell); experiment: Tumor cell proliferation, SGC-7901; assay type: cell-based; conditions: read-out: Inhibitory effect on tumor cell proliferation IC50
# [7] = system: mice; experiment: Acute toxicity (LD50) test in mice, intraperitoneal injection; assay type: in vivo, mouse; conditions: single intraperitoneal injection
# Method: Mice were single administered with LLDT-8 by intraperitoneal injection, and observed for clinical signs of toxicity immediately and the following 14 days. Necropsy was performed on all animals that died and on all survivors at the end of the 2-week study. Death was seen from the next day after treatment and reached a peak at the 2-4 day. All gross pathological changes should be recorded for each animal. There was no gender difference in survival.
# LLDT-8 is much less toxic than its parent compound, […].
# [8] = system: B lymphocyte; experiment: LPS induced B-lymphocyte proliferation ([3H]thymidine); assay type: cell-based, mouse
# Method: as §4, §5, §6
# [9] = system: Sac-stimulated lymphocytes; experiment: Cytokine production from Sac-stimulated lymphocytes (ELISA); assay type: cell-based, mouse; conditions: for IFN-γ production by lymphocytes stimulated with Sac, Mean Value: without drug 1302.6; for IL-12 production by lymphocytes stimulated with Sac: without drug 980; for IL-6 production by lymphocytes stimulated with Sac: without drug 1528; for IL-10 production by lymphocytes stimulated with Sac: without drug 2306; for TNF-α production by lymphocytes stimulated with Sac: without drug 4062
# Method: as §1, §2, §3
# TMB was taken as the enzyme substrate. The absorbance was measured at 450/570 nm by BioRad microplate reader. […]
# [10] = system: A-549 (human lung carcinoma); experiment: Tumor cell proliferation, A-549; assay type: cell-based; conditions: read-out: Inhibitory effect on tumor cell proliferation IC50
structure (smiles),measurement,setting,value
"CC(C)[C@]12O[C@H]1[C@@H]1O[C@]13[C@]1(O[C@H]1C[C@@]1(O)C4=C(CC[C@]31C)C(=O)OC4)[C@@H]2O [LLDT-8, (5R)-5-hydroxytriptolide]","IL-2 production by lymphocytes stimulated with ConA, Mean Value",[1]; 0.3 nM,3857.2 pg/mL
same,"IL-2 production by lymphocytes stimulated with ConA, Mean Value",[1]; 3 nM,3494.2 pg/mL
same,"IL-2 production by lymphocytes stimulated with ConA, Mean Value",[1]; 30 nM,2872.7 pg/mL
same,LD50 95% confidence limits,[2]; mice,5.4 to 8.4 mg/kg
same,LD50,"[2]; mice, 14 days, Bliss' method",6.8 mg/kg
same,gross pathology (hemorrhage),[2],"Obvious hemorrhage was seen at pylorus, duodenum, jejunum and ileum"
same,pathological changes in tissues by gross necropsy in survivors at day 15,[2],No significant pathological changes
same,pIC50,[3],7.10
same,pIC50,[4],6.66
same,ED50 for inhibiting T lymphocyte proliferation induced by ConA,[5]; 48 h,0.05812 µg/mL
same,pEC50,"[5]; 48 h, read-out: ED50 for inhibiting T lymphocyte proliferation induced by ConA",6.81
same,inhibitory activity weaker than CsA (T lymphocyte proliferation),[5]; compared with CsA,about 5.4 fold
same,pIC50,[6],7.37
same,LD50 95% confidence limits,[7]; mice,7.7 to 11.3 mg/kg
same,LD50,"[7]; mice, 14 days, Bliss' method",9.3 mg/kg
same,pathological changes in tissues by gross necropsy in survivors at day 15,[7],No significant pathological changes
same,ED50 for inhibiting B lymphocyte proliferation induced by LPS,[8]; 60 h,0.0598 µg/mL
same,pEC50,"[8]; 60 h, read-out: ED50 for inhibiting B lymphocyte proliferation induced by LPS",6.80
same,more potent inhibitory activity than CsA (B lymphocyte proliferation),[8]; compared with CsA,about 4.3 fold
same,"IFN-γ production by lymphocytes stimulated with Sac, Mean Value",[9]; 0.01 nM,809.7 pg/mL
same,"IFN-γ production by lymphocytes stimulated with Sac, Mean Value",[9]; 0.1 nM,850.5 pg/mL
same,IL-12 production by lymphocytes stimulated with Sac,[9]; 0.3 nM,917 pg/mL
same,IL-6 production by lymphocytes stimulated with Sac,[9]; 0.3 nM,1585 pg/mL
same,IL-10 production by lymphocytes stimulated with Sac,[9]; 0.3 nM,2866 pg/mL
same,TNF-α production by lymphocytes stimulated with Sac,[9]; 0.3 nM,4686 pg/mL
same,"IFN-γ production by lymphocytes stimulated with Sac, Mean Value",[9]; 1 nM,810.3 pg/mL
same,IL-12 production by lymphocytes stimulated with Sac,[9]; 3 nM,939 pg/mL
same,IL-6 production by lymphocytes stimulated with Sac,[9]; 3 nM,1403 pg/mL
same,IL-10 production by lymphocytes stimulated with Sac,[9]; 3 nM,2816 pg/mL
same,TNF-α production by lymphocytes stimulated with Sac,[9]; 3 nM,3899 pg/mL
same,"IFN-γ production by lymphocytes stimulated with Sac, Mean Value",[9]; 10 nM,465.3 pg/mL
same,IL-12 production by lymphocytes stimulated with Sac,[9]; 30 nM,602 pg/mL
same,IL-6 production by lymphocytes stimulated with Sac,[9]; 30 nM,989 pg/mL
same,IL-10 production by lymphocytes stimulated with Sac,[9]; 30 nM,3262 pg/mL
same,TNF-α production by lymphocytes stimulated with Sac,[9]; 30 nM,3649 pg/mL
same,"IFN-γ production by lymphocytes stimulated with Sac, Mean Value",[9]; 100 nM,227.4 pg/mL
same,pIC50,[10],7.49
